# Values joined by “and” are separate entries in the source; they are usually repeats but may differ in a detail not shown here. Equal values may be shown once.
# System: 388556-164-R-J1-PDC complex spheroid viability
# Assay: Anticancer human tumor 388556-164-R-J1-PDC patient-derived colon adenocarcinoma cell line growth inhibition [RAS]
# Conditions: for viability, T/C: stronger effect = lower value
# Excerpt: RAS pathway inhibitors in Combinations in Complex Spheroids
# A high-throughput screen of multi-cell type tumor spheroids was designed to identify active combinations of RAS pathway inhibitors and targeted small molecules. Complex spheroids include a stromal component modeled by human endothelial cells (HUVEC) and fibroblasts modeled by human mesenchymal stem cells (MSCs). The concentration ranges selected for each drug and investigational agent were based upon clinically achievable concentrations if the clinical Cmax of the agent was known.
# Compounds. The drugs and investigational agents: abemaciclib (NSC768073), cobimetinib (NSC768068), divarasib (GDC6063, NSC841802), docetaxel (NSC628503), GDC-1971 (RLY-1971, NSC841576), gemcitabine (NSC613327), inavolisib (NSC800729), ipatasertib (NSC767898), KB-0742 (NSC834161), MRTX-1133 (NSC836407), osimertinib (NSC779217), RMC-4630 (NSC839698), RMC-6236 (NSC851965), RMC-6291 (NSC852671), Ro-3306 (NSC812927), sapanisertib (NSC764658), SN-38 (NSC673596), staurosporine (NSC755774), SY5609 (NSC837396), and tovorafenib (DAY101, NSC766906), were obtained from the National Cancer Institute (NCI) Developmental Therapeutics Program Chemical Repository. The FDA-approved anticancer drug set is available from the NCI Developmental Therapeutics Program. […] The stock solutions were prepared in dimethyl sulfoxide (DMSO, Sigma-Aldrich, St. Louis, MO, cat. D2650) at 800-fold the tested concentration and stored at -70 degrees C prior to their use. All drugs and investigational agents were tested over a range starting from a high concentration at or near the clinical Cmax and decreasing in half-log increments. If the clinical Cmax for an agent had not been determined, the highest concentration tested was 10 microM.
# Cell Culture. All cells were maintained in an incubator at 37 degrees C and 5% CO2 with 95% humidity. The PDC lines were cultured according to standard operating procedures established by the NCI PDMR. All PDCs were thawed and cultured in Matrigel-coated flasks prepared with a working solution of 1X Ham's F-12 nutrient mix, without supplementation (Invitrogen, Waltham, MA, cat. 11765054), 100 U/mL penicillin-streptomycin (Invitrogen, cat. 15140122), and 2.5% Matrigel (Corning Inc., Corning, NY, cat. 354248) for the first three passages. The 362531-283-R-J2-PDC and 782815-120-R-J1-PDC lines were cultured in 6C/Colon 1B media, which includes advanced DMEM/F-12 (Thermo Fisher Scientific, cat. 12634028), 10 mM HEPES (Thermo Fisher Scientific, cat. 15630080), 1X GlutaMAX supplement (Thermo Fisher Scientific, cat. 35050061), 0.1 mg/mL primocin (InvivoGen, San Diego, CA, cat. ant-pm-2), 10% defined fetal bovine serum, heat inactivated (HyClone Laboratories Inc., Logan, UT, cat. SH30070.03HI), 50% L-WRN conditioned media (ATCC, cat. CRL-3276), 1.25 mM N-Acetyl-L-cysteine (Sigma-Aldrich, cat. A9165), 10 mM nicotinamide (Sigma-Aldrich, cat. N0636), 1X B-27 supplement (Thermo Fisher Scientific, cat. 17504044), 1X N-2 supplement (Thermo Fisher Scientific, cat. 17502048), 50 ng/mL human EGF (Thermo Fisher Scientific, cat. PHG0311), and 10 microM Y-27632 dihydrochloride (Tocris Bioscience, cat. 1254). The K12877-001-R-J1-PDC line was cultured in 6I media, which includes all 6C/Colon 1B media plus 10 ng/mL human FGF-10 (PeproTech, cat. 100-26), 1 ng/mL human FGF-2 (PeproTech, cat. 100-18B), 1 µM prostaglandin E2 (Tocris Bioscience, cat. 2296), […] hydrocortisone (Sigma-Aldrich, cat. H4001), and […] bovine insulin (Sigma-Aldrich, cat. I6634). The K86415-001-R-J1-PDC line was cultured in 6D media, which includes all 6C/Colon 1B media components minus the L-WRN conditioned media. The 485176-168-R4-J1-PDC was cultured in PANC media, which includes all 6C/Colon 1B media plus 100 ng/mL human FGF-10 (PeproTech, cat. 100-26), 500 nM SB-431542 (Selleckchem, cat. S1067), and 10 nM gastrin (Tocris Bioscience, cat. 3006). […]
# 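Note: spheroids exposed to compound for 7 days before readout.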
# 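Throughout, for viability, T/C: 100% = DMSO vehicle control luminescence.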
SMILES,"viability, T/C (compound 0.00316 µM)","viability, T/C (compound 0.0316 µM)","viability, T/C (compound 0.1 µM)","viability, T/C (compound 0.316 µM)","viability, T/C (compound 1 µM)","IC50 (compound alone, run of 09/09/2024)",IC50 (curve of compound),"viability, T/C (compound 0.01 µM)","viability, T/C (compound 0.000316 µM)","viability, T/C (compound 0.000949 µM)","viability, T/C (compound 0.003 µM)","viability, T/C (compound 0.00949 µM)","viability, T/C (compound 0.03 µM)","viability, T/C (compound 0.0949 µM)","viability, T/C (compound 0.3 µM)","IC50 (compound alone, run of 08/26/2024)","IC50 (compound alone, run of 08/20/2024)"
C=CC(=O)N1CCN(c2nc(OCC3CCCN3C)nc3c(F)c(-c4nc(N)cc(C)c4C(F)(F)F)c(Cl)cc23)C(C)C1 (stereo unspecified),100% [middle of 11 runs],99.2% [middle of 11 runs],105% [middle of 11 runs],102% [middle of 11 runs],98% [middle of 11 runs],> 1000 nM,> 1000 nM,–,–,–,–,–,–,–,–,–,–
C=CC(=O)Nc1cc(Nc2nccc(-c3cn(C)c4ccccc34)n2)c(OC)cc1N(C)CCN(C)C,–,98.9% [middle of 4 runs],88.7% [middle of 4 runs],78.6% [middle of 4 runs],64.3% [middle of 4 runs],–,> 1000 nM,103% (2×) and 87.1% and 86.9%,–,–,–,–,–,–,–,–,–
CC(C)n1nc(-c2ccc3oc(N)nc3c2)c2c(N)ncnc21,86.8% and 105% (2×) and 98.4%,59.4% [middle of 4 runs],40% (2×) and 49.2% and 51.2%,–,–,–,–,83% [middle of 4 runs],104% and 82.3% and 101% (2×),–,–,–,–,–,–,–,–
CC1(C)CCC(Nc2ncc(C(F)(F)F)c(-c3c[nH]c4c(P(C)(C)=O)c(C#N)ccc34)n2)CN1 (stereo unspecified),–,–,–,–,–,–,> 300 nM,–,–,89.6% and 97.1% and 84.3%,93.9% and 97.5% and 113%,95.5% and 100% and 114%,94.3% and 100% (2×),88.2% and 94.4% and 107%,87% and 84.8% and 87.1%,–,–
CCN1CCN(Cc2ccc(Nc3ncc(F)c(-c4cc(F)c5nc(C)n(C(C)C)c5c4)n3)nc2)CC1,99% and 107% and 91.4%,100% and 93.8% and 103%,97.8% and 98.6% and 93.7%,83.3% and 90.2% and 96.2%,91.3% and 82.5% and 92.3%,–,> 1000 nM,103% and 96.9% and 102%,–,–,–,–,–,–,–,–,–
CCc1c2c(nc3ccc(O)cc13)-c1cc3c(c(=O)n1C2)COC(=O)[C@]3(O)CC,–,–,–,–,–,–,90.4 nM [middle of 4 runs],–,–,108% [middle of 4 runs],93.6% [middle of 4 runs],84.6% [middle of 4 runs],68.7% [middle of 4 runs],50.5% [middle of 4 runs],32% [middle of 4 runs],–,–
CCn1c(-c2cc(N3CCN(C)CC3)cnc2C(C)OC)c2c3cc(ccc31)-c1csc(n1)CC(NC(=O)C1CC1C)C(=O)N1CCCC(N1)C(=O)OCC(C)(C)C2 (stereo unspecified),–,–,–,–,–,–,–,–,–,99% [middle of 8 runs],92% [middle of 8 runs],78.5% [middle of 8 runs],62.5% [middle of 8 runs],45.2% [middle of 8 runs],34.4% [middle of 8 runs],68.6 nM [middle of 8 runs],–
CCn1c(-c2cccnc2C(C)OC)c2c3cc(ccc31)N1CCOC(CC(NC(=O)C(C(C)C)N(C)C(=O)C3(F)CCN(C(=O)C#CC(C)(C)N(C)C)CC3)C(=O)N3CCCC(N3)C(=O)OCC(C)(C)C2)C1 (stereo unspecified),–,–,–,–,–,–,–,–,–,105% [middle of 6 runs],107% [middle of 6 runs],106% [middle of 6 runs],102% [middle of 6 runs],106% [middle of 6 runs],100% [middle of 6 runs],–,> 300 nM
Nc1ccn(C2OC(CO)C(O)C2(F)F)c(=O)n1 (stereo unspecified),97.9% [middle of 4 runs],81.8% [middle of 4 runs],79% [middle of 4 runs],74.7% [middle of 4 runs],70.2% [middle of 4 runs],–,> 1000 nM,93.1% [middle of 4 runs],–,–,–,–,–,–,–,–,–
O=C(c1ccc(F)c(F)c1Nc1ccc(I)cc1F)N1CC(O)([C@@H]2CCCCN2)C1,–,82.8% [middle of 4 runs],56.3% [middle of 4 runs],40.9% [middle of 4 runs],22.8% [middle of 4 runs],–,164 nM [middle of 4 runs],93.1% [middle of 4 runs],–,–,–,–,–,–,–,–,–
